≈ marks a conversion by molar mass, not a printed value. Some results are limits rather than exact numbers.

The test system of series [1] is Epstein-Barr virus (EBV), Akata strain. Further details: SI50 / SI90: unit not given beside the values.
Series [2] deals with BK virus (BKV), Gardner strain. The arrangement: SI50 / SI90: unit not given beside the values.
Series [3] concerns Human cytomegalovirus (HCMV), strain AD169. To be noted: for EC50 / EC90: drug concentration 0.048-150 μM.
The subject of the next series is MERS-CoV (EMC). Type of series: cell-based. To be noted: SI = CC50/EC50.
Series [4] relates to SARS-CoV-2 (USA-WA1/2020). To be noted: for SI50 (SI): SARS-CoV-2, SI = CC50/EC50.
In series [5] the test system is influenza/California/07/2009 (H1N1)pdm09. To be noted: for SI50 (SI): Influenza(H1N1), SI = CC50/EC50.
Series [6] has as its system Influenza B/Florida/4/2006 (Yamagata). To be noted: for SI50 (SI): Influenza B, SI = CC50/EC50.
Series [7] relates to enterovirus-68 (EV-68, US/DY/14-18953). To be noted: for SI50 (SI): EV-68, SI = CC50/EC50.
Series [8] concerns respiratory syncytial virus (RSV, A2). To be noted: for SI50 (SI): RSV, SI = CC50/EC50.
For series [9], the system named is Tacaribe virus (TCRV, TRVL-11573). Further details: SI50 (SI): unit not given beside the values.
The subject of series [10] is dengue virus-2 (DENV-2, New Guinea C). To be noted: SI = CC50/EC50.
Series [11] in a line: in vitro. To be noted: both, human, plasma.
A short description of series [12]: in vitro. To be noted: male, SD, rat, plasma.
Another series has as its system HCMV AD169. Description: HCMV plaque reduction assay, MRC-5 cells, strain AD169. To be noted: hCMV AD169, MRC5 cells, plaque assay, 6-days duration. The series is classed as cell-based, Human cytomegalovirus. Background: In a plaque reduction assay, fewer plaques than in the control indicate reduced infectivity or spread.
The subject of series [13] is Rift Valley fever virus (RVFV).
Series [14] has as its target SARS-Cov2 RdRp (nsp12-nsp7-nsp8) (Severe acute respiratory syndrome coronavirus 2, UniProt P0DTD1). The series is classed as biochemical. To be noted: primer extension; analog at 100 uM, printed 100 mM.

With `C#C[C@@]1(O)[C@H](O)[C@@H](CO)O[C@H]1n1ccc2c(N)ncnc21` [NITD008, reference compound], in the series with Zika virus, the CC50 came out at 44 µg/mL (≈ 0.152 mM), the EQ50 turned out to be 1.8 µg/mL and the SI is 24.
For orientation: EC50 means the concentration giving half of the maximal effect. In general, EC90 refers to the concentration at which the effect reaches the 90% level. Take `C[C@H](Cn1cnc2c(N)ncnc21)OCP(=O)(O)O` [TNV, reference compound]: in series [1], the CC50 is over 150 µM, it took 45.8 µM to reach a half-maximal effect (EC50), the EC90 is over 150 µM and the SI50 is given as over 3. This compound also gave an SI90 in series [1] of 1. In series [2], this compound gave a CC50 of over 150 µM, an EC90 of over 150 µM and an SI90 of 1. Besides, in the series on JC virus (JCV), the CC50 was over 150 µM, the EC50 is over 150 µM and the EC90 is over 150 µM. In [3], this compound came in with a CC50 of over 150 µM, an EC50 of over 150 µM and an EC90 of over 150 µM.
With `CC(C)(C)C(=O)SCCOP(=O)(OCCSC(=O)C(C)(C)C)OCC1=CC(O)C(n2cnc3c(=O)[nH]cnc32)O1` (stereo not shown) [SATE-ddhI], the “SI50 (SI)” value (in the series with MERS-CoV (EMC); in series [4]; in series [5]; in series [6]; in [7]; in series [8]) was 0 each time. Moreover, the “SI50 (SI)” value in [9] and in [10] was 0 in each case. For the same compound, the Activity entry in series [1] is recorded as “MOD (key: NA (Not Active) SI50 = 0-3.9; MOD (Moderately Active) SI50 = 4-9.9; HI (Highly Active) SI50 = ≥10)”; in [2], “NA (key: NA (Not Active) SI50 = 0-3.9; MOD (Moderately Active) SI50 = 4-9.9; HI (Highly Active) SI50 = ≥10)”. Moreover, the CC50 in series [1] is over 150 µM; in [2], over 150 µM; in series [4], 530 µM; in [5], over 1000 µM; in series [6] it was over 1000 µM; in series [7], over 100 µM. Besides, the CC50 is over 1000 µM in series [8] and 900 µM in [9]. Further, the EC50 in [1] turned out to be 18.8 µM; in series [2], 115 µM. The EC90 in [1] was 81.9 µM; in [2], over 150 µM. Moreover, the SI50 is recorded as over 8 in [1] and over 1 in series [2]. In addition, the SI90 is recorded as over 2 in [1] and 1 in series [2]. In [1], the “activity against EBV (in words)” value is “moderately active”.
Broadly, the half-life is the time needed for the level to fall by half in the phase considered. Take `CC(C)[N+](C)(CCOC(=O)C1c2ccccc2Oc2ccccc21)C(C)C` [Propantheline]: the half-life at 0.75 µM in “in vitro [11]” is 0.28 h.
`COc1ccc([C@@H]2Sc3ccccc3N(CCN(C)C)C(=O)[C@@H]2OC(C)=O)cc1` [Diltiazem]: the half-life at 0.75 µM in the series “in vitro [12]” worked out at 2.08 h.
`CC(C)(C)C(=O)SCCOP(=O)(OCCSC(=O)C(C)(C)C)OCC1=CC(O)C(n2cnc3c(=O)[nH]c(N)nc32)O1` (stereo not shown) [SATE-ddhG]: the “SI50 (SI)” value (with MERS-CoV (EMC); in series [4]; in [5]; in [6]; in [7]; in [8]) was 0 throughout. The “SI50 (SI)” value in [9] and in [10] was 0 each time. In addition, the Activity result in [1] was “HI (key: NA (Not Active) SI50 = 0-3.9; MOD (Moderately Active) SI50 = 4-9.9; HI (Highly Active) SI50 = ≥10)”; in [2] it was “HI (key: NA (Not Active) SI50 = 0-3.9; LO (Slightly Active) SI50 = 4-9.9; MOD (Moderately Active) SI50 = 10-19.9; HI (Highly Active) SI50 = ≥20)”. The CC50 in series [1] was 106 µM; in series [2] it was over 150 µM; in [4], over 1000 µM; in series [5] it was over 1000 µM; in series [6], over 1000 µM; in [7], 83 µM. In addition, the CC50 is over 1000 µM in series [8] and 610 µM in [9]. The EC50 in series [1] amounted to 2.98 µM; in series [2], 5.32 µM. The EC90 was over 30 µM in [1] and 5.86 µM in series [2]. For the same compound, the SI50 in series [1] is on record as 35; in series [2], over 28. Besides, the SI90 was under 4 in [1] and over 26 in series [2]. Moreover, the “activity against EBV (in words)” value in series [1] is reported as “highly active”. Besides, the “activity against BK virus (in words)” value in [2] was “highly active”.
In the series on adenovirus-5 (Ad5), `Nc1ccn([C@H]2CC[C@@H](CO)O2)c(=O)n1` [2-3 Dideoxycytidine] gave a CC50 of over 100 µg/mL, an EQ50 of 1.8 µg/mL and an SI of over 56.
For `Nc1ccn([C@@H]2OC(CO)=C[C@H]2O)c(=O)n1` [ddhC, ddh cytidine], the “activity against enterovirus EV-68 (in words)” value in the series with enterovirus-68 (EV-68) was “exhibits some activity”.
As for `Nc1nc2c(ncn2COC(CO)CO)c(=O)[nH]1` [GCV], in [3], the CC50 is over 150 µM, a half-maximal response (EC50) required 0.19 µM and the EC90 is over 150 µM.
`Nc1nc2c(ncn2COC(CO)CO)c(=O)[nH]1` [Ganciclovir, reference compound] returned an EC50 with HCMV AD169 of 7.36 µM.
For the compound `NC(=O)c1ncn([C@@H]2O[C@H](CO)[C@@H](O)[C@H]2O)n1` [Ribavirin, Ribavirin (Virazole), reference compound], the CC50 was 820 µg/mL (≈ 3.36 mM) in the series on TCRV; 870 µg/mL (≈ 3.56 mM) in [13] (Vero 76 cells without virus, positive control); over 1000 µg/mL in the series with influenza A(H1N1); over 1000 µg/mL in the series on influenza A(H5N1) (MDCK cells without virus, positive control); over 1000 µg/mL in the series with Influenza B; 42 µg/mL (≈ 0.172 mM) with RSV. Besides, the CC50 is over 1000 µg/mL in [5], over 1000 µg/mL in series [6], 310 µg/mL in [8] and over 1000 µg/mL in series [9]. In addition, the EQ50 in the series with TCRV was 13 µg/mL; in [13] (RVFV, Vero 76 cells, positive control), 14 µg/mL; in the series on influenza A(H1N1), 4.6 µg/mL; in the series on influenza A(H5N1) (influenza A(H5N1), MDCK cells, positive control) it was 1.8 µg/mL; with Influenza B, 1.4 µg/mL; in the series on RSV, 7.3 µg/mL. The SI with TCRV is reported as 63; in series [13] it was 62; in the series on influenza A(H1N1), over 220; in the series on influenza A(H5N1), over 560; in the series with Influenza B, over 710; in the series on RSV, 5.8. Moreover, the “SI50 (SI)” value in [5] is over 130; in series [6], over 130; in [8], 16; in [9], over 190.
Turning to `CC(C)(C)C(=O)SCCOP(=O)(OCCSC(=O)C(C)(C)C)OCC1=CC(O)C(n2ccc(N)nc2=O)O1` (stereo not shown) [SATE-ddhC], the “SI50 (SI)” value (with MERS-CoV (EMC); in series [4]; in series [5]; in series [6]; in series [7]; in series [8]) was 0 each time. Besides, the “SI50 (SI)” value in series [9] and in [10] was 0 each time. The Activity result in [1] was “MOD (key: NA (Not Active) SI50 = 0-3.9; MOD (Moderately Active) SI50 = 4-9.9; HI (Highly Active) SI50 = ≥10)”; in series [2] it was “NA (key: NA (Not Active) SI50 = 0-3.9; MOD (Moderately Active) SI50 = 4-9.9; HI (Highly Active) SI50 = ≥10)”. The CC50 in series [1] was 124 µM; in [2], over 150 µM; in series [4], 410 µM; in [5], 550 µM; in series [6], over 1000 µM; in series [7] it was over 100 µM. The CC50 was 540 µM in [8] and 210 µM in series [9]. Moreover, the EC50 in [1] worked out at 18.8 µM; in [2], 96 µM. The EC90 in series [1] was over 30 µM; in [2] it was over 150 µM. Also, the SI50 in [1] is on record as 7; in series [2], over 2. For the same compound, the figures for the SI90 in series [1] and in series [2] were under 4 and 1, respectively. For the same compound, in series [1], the “activity against EBV (in words)” value is listed as “moderately active”.
`O=c1ccn([C@@H]2O[C@H](COP(=O)(O)OP(=O)(O)OP(=O)(O)O)C[C@H]2O)c(=O)[nH]1` [3′-dUTP, 3′-deoxyuracil triphosphate, reference compound]: in [14], the “incorporation into RNA by SARS-Cov2 RdRp (in words)” value is given as “same level of incorporation as ddhUTP”.

For the origin of these results see patent publication US12466849B2, “Anti-viral and anti-tumoral compounds” (YEDA RESEARCH AND DEVELOPMENT CO. LTD, priority 2020, dated 2025).
